Entries after “also recorded” stand apart in the source; their conditions may differ. Where two headings read alike, the source gives them in different places. Marks after values point to notes of the source that are not given here.
Tests used:
D3R [1] = biological target: T1, D3R (Homo sapiens, UniProt P35462); test: HTRF Ki determination at D3R; assay type: binding; conditions: for Selectivity D1R/D3R (Ki fold-difference) / Selectivity D2R/D3R (Ki fold-difference): Ki assumed ≥100 µM where n.d.
T1 sequence (P35462 whole entry): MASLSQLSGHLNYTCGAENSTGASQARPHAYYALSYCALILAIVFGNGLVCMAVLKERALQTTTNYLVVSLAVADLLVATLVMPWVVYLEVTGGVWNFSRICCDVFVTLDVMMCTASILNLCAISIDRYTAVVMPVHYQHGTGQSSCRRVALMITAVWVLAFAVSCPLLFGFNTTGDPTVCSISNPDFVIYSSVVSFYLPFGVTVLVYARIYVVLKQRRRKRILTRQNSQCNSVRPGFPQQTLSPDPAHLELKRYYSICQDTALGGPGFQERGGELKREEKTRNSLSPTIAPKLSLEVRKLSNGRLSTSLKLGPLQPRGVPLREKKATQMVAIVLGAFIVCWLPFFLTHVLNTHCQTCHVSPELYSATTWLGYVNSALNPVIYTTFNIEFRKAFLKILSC
Description: (§1) All HTRF assays were performed using an HTRF-compatible plate reader (model Tecan Spark (Tecan Group, Männedorf, Switzerland)). The respective settings were specifically modified and optimized for the determination of D2R ligand-binding affinities. Binding affinities were determined using the same settings for measurements with D1R and D3R carrier cells. […] Fluorophores were excited at 320 nm. A dichroic 510 mirror was used, while lag and integration times of 100 and 400 µs were applied, respectively. Flashes were set to 75. Electronic gain was automatically optimized, while the z-position was optimized based on the well with the highest expected signal. […] The first plate was used to determine the gain and the z-position. Subsequently, the determined values were set manually for the second plate to enable direct comparison between the different plates.
The cells used for the subsequent screening and detailed investigation of D1R and D3R ligands were acquired from PerkinElmer/cisbio (Waltham, MA, USA; Tag-lite Dopamine D1 or D3a-labeled Cells, ready-to-use (transformed and labeled), 200 tests; C1TT1D1 and C1TT1D3A, respectively). The cells were stored in liquid nitrogen until further use. […] The assay was conducted according to the standard operation protocol (SOP) available from PerkinElmer/cisbio. The 96-well plates were incubated at room temperature for 2 h. The 96-well plates were read as described in Section 2.10. The respective concentrations of the dilution series were performed in triplicates. In total, Kd determination was performed twice.
(§2) The Ki was determined in duplicates following the SOP available from PerkinElmer/cisbio and as described in Section 2.10.
(§3) Saturation binding curves were processed and visualized in GraphPad Prism 8 (Nonlinear regression (curve fit), One site—Fit logIC50 was performed using GraphPad Prism version 8.2.1 for Windows, GraphPad Software, San Diego. CA, USA). Molecular docking was performed in GOLD 5.8.0 (CCDC, Cambridge, United Kingdom). […] Two-dimensional structures of all shown compounds were generated using ChemDraw version 19.0 (PerkinElmer, Waltham, MA, USA).

D3R [2] = biological target: T1, D3R; test: HTRF competitive binding screening (NDF) at D3R carrier cells; conditions: 10 µM, n = 4, fluorescence decrease normalized to the control
Description: as §1
(§4) The cells used for the subsequent screening and detailed investigation of D1R and D3R ligands were acquired from PerkinElmer/cisbio (Waltham, MA, USA; Tag-lite Dopamine D1 or D3a-labeled Cells, ready-to-use (transformed and labeled), 200 tests; C1TT1D1 and C1TT1D3A, respectively). The cells were stored in liquid nitrogen until further use. Fluorescent-labelled ligands (Dopamine D2 Receptor red antagonist Fluorescent Ligand (L0002RED), stored at −20 °C and Dopamine D1 Receptor green antagonist (L0031GRE), stored at −20 °C), assay buffer (5Xconcentrate Tag-lite Buffer (TLB), 100 mL, stored at +4 °C; LABMED), and 96-well plates (HTRF 96-well low-volume white plate; 66PL96005) required for the in vitro assay were also acquired from PerkinElmer/cisbio. The assay was conducted according to the standard operation protocol (SOP) available from PerkinElmer/cisbio. The 96-well plates were incubated at room temperature for 2 h. The 96-well plates were read as described in Section 2.10. The respective concentrations of the dilution series were performed in triplicates. In total, Kd determination was performed twice.
(§5) The investigated compounds were taken from a previous pharmacophore-based virtual screening study described in Zell et al.. The activities of all compounds were investigated via a competitive binding (in comparison with a fluorescence-labeled ligand) of the respective compounds at D1R/D3R, utilizing an HTRF assay using a screening concentration of 10 µM.

D2R [3] = biological target: T2, D2R (Homo sapiens, UniProt P14416); set-up: method as in PMID 35889317; conditions: n = 6, ± SD; values from previous experiments; cited from earlier work
T2 construct: expressed in transfected cells; host or cells: D2R carrier cells (not described here)
T2 sequence (P14416 whole entry): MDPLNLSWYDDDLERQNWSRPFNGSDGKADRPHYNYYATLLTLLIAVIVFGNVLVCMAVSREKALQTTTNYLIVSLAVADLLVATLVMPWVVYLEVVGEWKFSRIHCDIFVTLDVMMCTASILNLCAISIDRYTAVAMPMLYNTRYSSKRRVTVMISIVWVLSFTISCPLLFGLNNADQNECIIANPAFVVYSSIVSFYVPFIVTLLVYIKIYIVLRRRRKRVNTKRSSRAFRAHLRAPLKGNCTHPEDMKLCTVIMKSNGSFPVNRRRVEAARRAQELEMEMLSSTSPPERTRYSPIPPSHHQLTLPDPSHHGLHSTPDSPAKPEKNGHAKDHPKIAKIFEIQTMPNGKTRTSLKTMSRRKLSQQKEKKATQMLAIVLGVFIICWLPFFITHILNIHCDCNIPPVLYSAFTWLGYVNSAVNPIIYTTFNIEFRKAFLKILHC

D1R [4] = biological target: T3, D1R (Homo sapiens, UniProt P21728); test: HTRF Ki determination at D1R; assay type: binding; conditions: n = 6, ± SD; n.d. = not determinable (highest concentration 100 µM)
T3 sequence (P21728 whole entry): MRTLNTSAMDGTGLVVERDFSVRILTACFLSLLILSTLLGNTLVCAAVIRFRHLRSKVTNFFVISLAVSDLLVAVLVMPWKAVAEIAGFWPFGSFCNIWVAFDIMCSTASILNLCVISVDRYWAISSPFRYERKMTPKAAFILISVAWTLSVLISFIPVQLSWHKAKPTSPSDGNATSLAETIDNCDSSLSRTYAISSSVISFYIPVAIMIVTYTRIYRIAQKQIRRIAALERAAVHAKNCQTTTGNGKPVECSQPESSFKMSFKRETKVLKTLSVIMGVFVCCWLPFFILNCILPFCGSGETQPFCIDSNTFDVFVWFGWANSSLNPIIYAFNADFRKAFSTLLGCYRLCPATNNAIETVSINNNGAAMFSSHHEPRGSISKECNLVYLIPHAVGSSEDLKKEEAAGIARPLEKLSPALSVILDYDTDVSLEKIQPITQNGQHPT
Description: as §1, §4, §2, §3

D2R [5] = biological target: T2, D2R; test: HTRF Ki determination at D2R; assay type: binding; conditions: for Selectivity D1R/D2R (Ki fold-difference): Ki assumed ≥100 µM where n.d.
Description: as §1
The characterization of the D2R carrier cells is detailed in [42].
as §2, §3

D2R [6] = biological target: T2, D2R; conditions: 10 µM, n = 4, normalized to the control; cited from earlier work
D1R [7] = biological target: T3, D1R; test: HTRF competitive binding screening (NDF) at D1R carrier cells; conditions: 10 µM, n = 4, fluorescence decrease normalized to the control
Description: as §1, §4, §5

D2R [8] = conditions: radio-ligand binding, cited from earlier work
D1R [9] = conditions: radio-ligand binding, cited from earlier work
D3R [10] = conditions: radio-ligand binding, cited from earlier work
D3R [11] = biological target: T1, D3R; set-up: method as in PMID 24061855, PMID 19331412; conditions: R22 analogues, linker length; cited from earlier work
[12] = n = 6, ± SD, n.d. = not determinable (highest concentration 100 µM)
[13] = Table S3 D2like-selective dataset, ref ChEMBL [56,69,72-106]
[14] = Table S4 D3R-selective dataset, ref ChEMBL [53,56,62-118]

Selectivity D2R/D3R (Ki fold-difference) (D3R [1])	Ki (D3R [1]; n = 6, ± SD)	Normalized Decrease in Fluorescence (NDF) ± SD, D3R (D3R [2])	Ki (D1R [4])	Selectivity D1R/D2R (Ki fold-difference) (D2R [5])	Normalized Decrease in Fluorescence (NDF) ± SD, D1R (D1R [7])	Molecule	Selectivity D1R/D3R (Ki fold-difference) (D3R [1])	Ki (D2R [3])	Normalized Decrease in Fluorescence (NDF) ± SD, D2R (D2R [6])	further results
4.86	2250 ± 910 nM	2.65 ± 0.64	46900 ± 27400 nM	4.28	1.26 ± 0.64	CCN(CCC(=O)Nc1cccc(OC)c1)Cc1ccccc1 [Compound 5]	20.8	11000 ± 4430 nM	15.74 ± 18.15	
4.11	680 ± 68 nM	3.79 ± 0.70	8330 ± 2170 nM	3.00	1.57 ± 0.54	O[C@H](CNCCNc1ccc(C(F)(F)F)cn1)CSc1ccc(F)cc1 [Compound 7]	12.3	2780 ± 1060 nM	10.85 ± 4.93	
						SC144				Ki (D2R [8]; [13]): 38 nM; Ki (D1R [9]; [13]): 1300 nM; Ki (D3R [10]; [13]): 3 nM
						SC79				Ki (D2R [8]; [13]): 622 nM; Ki (D1R [9]; [13]): 10000 nM; Ki (D3R [10]; [13]): 6.11 nM
13.8	24 ± 3 nM	3.97 ± 0.78	9460 ± 1180 nM	28.6	1.71 ± 0.86	NC(=O)c1ccccc1OCCCN1CCN(c2ccccc2)CC1 [Compound 9]	395.1	330 ± 93 nM	22.08 ± 6.62	
3.56	370 ± 280 nM	4.21 ± 0.79	7760 ± 4410 nM	5.77	2.15 ± 1.16	O=C(CCN1CCN(c2ccccc2F)CC1)Nc1cccc(F)c1 [Compound 6]	20.7	1350 ± 630 nM	8.18 ± 3.62	
						O=C(NCCCCN1CCN(c2cccc(Cl)c2Cl)CC1)c1cc2ccccc2[nH]1 [C4 analogue]				D2R/D3R-selectivity fold-difference (D3R [11]): 45.7
						SC236				Ki (D2R [8]; [14]): 2320 nM; Ki (D1R [9]; [14]): 1270 nM; Ki (D3R [10]; [14]): 214 nM
		3.82 ± 1.32			3.47 ± 1.04	CN1CCc2cccc3c2[C@H]1Cc1ccc(O)c(O)c1-3 [Compound 1, apomorphine, reference compound]			9.44 ± 5.97	
12.2	380 ± 22 nM	3.96 ± 1.10		>21.4 ^b	1.78 ± 1.35	NS(=O)(=O)c1ccc(CCNCc2ccc(-c3cc(Cl)ccc3Cl)o2)cc1 [Compound 3]		4660 ± 2690 nM	3.99 ± 2.58	Ki D1R (D1R [4]): inactive

Molecule	Selectivity D2R/D3R (Ki fold-difference) (D3R [1])	Ki (D3R [1]; n = 6, ± SD)	Normalized Decrease in Fluorescence (NDF) ± SD, D3R (D3R [2])	Ki (D1R [4])	Selectivity D1R/D2R (Ki fold-difference) (D2R [5])	Normalized Decrease in Fluorescence (NDF) ± SD, D1R (D1R [7])	Selectivity D1R/D3R (Ki fold-difference) (D3R [1])	Ki (D2R [3])	Normalized Decrease in Fluorescence (NDF) ± SD, D2R (D2R [6])	further results
CN1CCN(C2Cc3ccc(O)cc3Sc3ccc(Cl)cc32)CC1 (centres unmarked) [Compound 2]	1.66	3 ± 1 nM	4.16 ± 1.08	9 ± 2 nM	1.95	5.46 ± 1.97	3.23	5 ± 2 nM	40.41 ± 1.39	
Oc1cccc(C(O)CNCc2cccc(Cl)c2Cl)c1 (centres unmarked) [Compound 4]	>27.2 ^b	3680 ± 940 nM	2.75 ± 0.61			0.90 ± 0.31	>27.2 ^b		0.90 ± 0.39	Ki D1R (D1R [4]): inactive; also recorded: no determinable binding affinity; also recorded: no determinable binding affinities; Ki D2R (D2R [5]; [12]): inactive; also recorded: no determinable binding affinity; also recorded: no determinable binding affinities
COc1cc(CC[C@H](C)NCc2ccccc2)ccc1O [Compound 8]	>43.1 ^b	2320 ± 920 nM	2.63 ± 0.52			1.20 ± 0.59	>43.1 ^b		1.10 ± 0.52	Ki D1R (D1R [4]): inactive; also recorded: no determinable binding affinity; also recorded: no determinable binding affinities; Ki D2R (D2R [5]; [12]): inactive; also recorded: no determinable binding affinity; also recorded: no determinable binding affinities
COc1ccccc1N1CCN(CCCCNC(=O)c2ccc(Cl)cc2)CC1 [Compound 10]	263.7	2 ± 1 nM	4.09 ± 1.07	2380 ± 130 nM	3.91	2.59 ± 1.04	1031.4		22.89 ± 8.41	Ki (D3R [1]): 2.3 nM; Ki (D2R [5]; [12]): 610 ± 85 nM

— paper PMC10216180, “Dopamine Receptor Ligand Selectivity—An In Silico/In Vitro Insight” (Biomedicines, 2023)
